In brackets after ≈: the same amount, converted by molar mass. Where two headings read alike, the source gives them in different places. Bounds are passed on as bounds.

8 molecules from patent US7250413B2, “C-25 carbamate rifamycin derivatives with activity against drug-resistant microbes” (Cumbre Pharmaceuticals Inc., priority 2004, dated 2007) can be followed below.

Type in all cases: cell-based
Assay [1] has as its system Staphylococcus aureus ATCC29213 rpoB^D417Y. The assay can be described thus: microbe, parasite or virus in culture. As to the method: (§1) Representative compounds were assayed for antimicrobial activity as follows: Minimum Inhibitory Concentrations (“MICs”) were determined by the microbroth dilution method as per NCCLS guidelines (National Committee for Clinical Laboratory Standards, 2000), except that all growth incubations were conducted at 37° C. Bacterial cultures were tested in the following bacteriological media: S. aureus, S. epidermidis, and E. coli in Cation-Adjusted Mueller-Hinton Broth, S. pneumoniae in THY Broth supplemented with 1 mg/mL catalase under 5% CO2 atmosphere, S. pyogenes in THY Broth, E. faecalis in BHI Broth, H. influenzae in BHI Broth supplemented with 0.75 μL of 1 mg/mL NAD and 150 μL of 1 mg/ml hematin per 5 mL, and M smegmatis in Middlebrook Broth plus ADC Enrichment.

Assay [2] relates to Staphylococcus aureus ATCC29213 rpoB^H418Y. The assay can be described thus: microbe, parasite or virus in culture. As to the method:
as §1

Assay [3] has as its system Enterococcus faecalis ATCC29212. The assay can be described thus: MIC, microbroth dilution. To be noted: rifS, BHI Broth, 37° C., read-out: MIC. The gist of the method:
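Antimicrobial activity against E. faecalis was assessed as the MIC, using the microbroth dilution procedure described by NCCLS (2000) guidelines. BHI Broth served as the culture medium, and all incubations for growth were performed at 37° C rather than under the guideline's default conditions.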

In assay [4] the test system is Escherichia coli ATCC25922. The assay can be described thus: MIC, microbroth dilution. The following applies: rifS, Cation-Adjusted Mueller-Hinton Broth, 37° C. (In general: Broth dilution looks for growth in wells or tubes with falling amounts of substance.)
In assay [5] the test system is Haemophilus influenzae ATCC10211. The experiment in a line: MIC, microbroth dilution. The gist of the method: (§2)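 H. influenzae in BHI with NAD and hematin, M. smegmatis in Middlebrook/ADC, S. aureus in CAMHB.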
Assay [6] deals with Mycobacterium smegmatis ATCC700084. The assay can be described thus: MIC, microbroth dilution. The gist of the method: as §2
The subject of assay [7] is Staphylococcus aureus ATCC29213. The assay can be described thus: MIC, microbroth dilution. To be noted: rifS, Cation-Adjusted Mueller-Hinton Broth, 37° C., read-out: MIC. The gist of the method: as §2
The subject of assay [8] is Staphylococcus epidermidis ATCC12228. The assay can be described thus: MIC, microbroth dilution. The following applies: rifS, Cation-Adjusted Mueller-Hinton Broth, 37° C. The gist of the method: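 Growth was measured in Middlebrook broth with ADC enrichment for M. smegmatis, BHI broth supplemented with NAD and hematin for H. influenzae, and cation-adjusted Mueller-Hinton broth for S. aureus. Minimum inhibitory concentrations came from NCCLS microbroth dilution at 37 °C.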

In assay [9] the test system is Streptococcus pneumoniae ATCC6303. The experiment in a line: MIC, microbroth dilution. To be noted: rifS, THY Broth supplemented with 1 mg/mL catalase under 5% CO2, 37° C.
Assay [10] relates to Streptococcus pyogenes ATCC19615. The assay can be described thus: MIC, microbroth dilution. To be noted: rifS, THY Broth, 37° C.
The nature of assay [11]: MIC, summary over rifampin-susceptible Gram-positive strains. The following applies: read-out: MICs. As to the method:
as §1

Assay [12] concerns H. influenzae ATCC 10211 and E. coli ATCC 25922. The experiment in a line: MIC, summary over Gram-negative bacteria. As to the method:
as §1

The mark [13] stands for this setting: Mycolicibacterium smegmatis, ATCC700084, rifS, Middlebrook Broth plus ADC Enrichment, 37° C., read-out: MIC.

`CO[C@H]1/C=C/O[C@@]2(C)Oc3c(C)c(O)c4c(O)c(c(/C=N/N5CCN(C)CC5)c(O)c4c3C2=O)NC(=O)/C(C)=C\C=C\[C@H](C)[C@H](O)[C@@H](C)[C@@H](O)[C@@H](C)[C@H](OC(C)=O)[C@@H]1C` [rifampin]: the MIC is greater than 64 µg/mL in assay [1] (Staphylococcus aureus, ATCC29213); greater than 64 µg/mL in assay [1] (rifR, Cation-Adjusted Mueller-Hinton Broth, 37° C.); 7.8 µg/mL (≈ 9.48 µM) in assay [2] (ATCC29213, rifR, Cation-Adjusted Mueller-Hinton Broth, 37° C.); 8 µg/mL (≈ 9.72 µM) in assay [2] (ATCC29213, text, rifampin-resistant strain S. aureus ATCC 29213 RpoB^H418Y); 0.98 µg/mL (≈ 1.19 µM) in [3]; 16 µg/mL (≈ 19.4 µM) in [4]. In addition, the MIC was determined as 0.24 µg/mL (≈ 0.292 µM) in assay [5]; 64 µg/mL in assay [6] (setting [13]); 64 µg/mL (≈ 77.8 µM) in assay [6] (mycobacterial strain M smegamatis ATCC 700084); 0.008 µg/mL (≈ 0.00972 µM) in assay [7]; 0.03 µg/mL (≈ 0.0365 µM) in assay [8]; 0.061 µg/mL (≈ 0.0741 µM) in [9]. In addition, the MIC in assay [10] is 0.013 µg/mL (≈ 0.0158 µM); in assay [11], 0.03 to 1.3 µg/mL (≈ 0.0365 to 1.58 µM); in [12], 0.24 to 16 µg/mL (≈ 0.292 to 19.4 µM).

With `COc1c(N2CCN(C3CCN(C(=O)O[C@H]4[C@H](C)[C@H](O)[C@H](C)[C@@H](O)[C@@H](C)/C=C/C=C(/C)C(=O)NC5=C(N6CCOCC6)C(=O)c6c(c(O)c(C)c7c6C(=O)[C@@](C)(O/C=C/[C@H](OC)[C@H]4C)O7)C5=O)C3)CC2)c(F)cc2c(=O)c(C(=O)O)cn(C3CC3)c12` (stereo partly drawn) [Example 62], the MIC in assay [3] fell in the range of 0.25 to 62 µg/mL (≈ 0.209 to 51.9 µM); in [6] (setting [13]) it was 0.063 to 31 µg/mL; in assay [7], 0.002 to 1.95 µg/mL (≈ 0.00167 to 1.63 µM).

As for `CO[C@H]1/C=C/O[C@@]2(C)Oc3c(C)c(O)c4c(c3C2=O)C(=O)C(N2CCOCC2)=C(NC(=O)/C(C)=C\C=C\[C@H](C)[C@H](O)[C@@H](C)[C@@H](O)[C@@H](C)[C@H](OC(=O)NCCN2CCCC2)[C@@H]1C)C4=O` [Example 32, 25-O-Desacetyl-(carbonyl-2-Pyrrolidin-1-yl-ethylamine) 3-morpholino rifamycin S], the MIC fell in the range of 0.25 to 62 µg/mL (≈ 0.284 to 70.5 µM) in assay [3], 0.063 to 31 µg/mL in [6] (setting [13]) and 0.002 to 1.95 µg/mL (≈ 0.00228 to 2.22 µM) in assay [7].

For the molecule `CO[C@H]1/C=C/O[C@@]2(C)Oc3c(C)c(O)c4c(c3C2=O)C(=O)C(N2CCOCC2)=C(NC(=O)/C(C)=C\C=C\[C@H](C)[C@H](O)[C@@H](C)[C@@H](O)[C@@H](C)[C@H](OC(=O)NCCc2ccccc2)[C@@H]1C)C4=O` [Example 25, 25-O-Desacetyl-(carbonyl-3-phenylethylamino) 3-morpholino rifamycin S], the MIC in [3] lay in the range of 0.25 to 62 µg/mL (≈ 0.282 to 70 µM); in assay [6] (setting [13]), 0.063 to 31 µg/mL; in assay [7], 0.002 to 1.95 µg/mL (≈ 0.00226 to 2.2 µM).

For the molecule `CCN(CC)C(=O)O[C@H]1[C@H](C)[C@H](O)[C@H](C)[C@@H](O)[C@@H](C)/C=C/C=C(/C)C(=O)NC2=C(N3CCOCC3)C(=O)c3c(c(O)c(C)c4c3C(=O)[C@@](C)(O/C=C/[C@H](OC)[C@H]1C)O4)C2=O` [Example 10, 25-O-Desacetyl-(1-carbonyl-2-diethylamine) 3-morpholino rifamycin S], the results for the MIC in [3], in assay [6] (setting [13]) and in assay [7] were 0.25 to 62 µg/mL (≈ 0.298 to 74 µM), 0.063 to 31 µg/mL and 0.002 to 1.95 µg/mL (≈ 0.00239 to 2.33 µM), respectively.

On to `CO[C@H]1/C=C/O[C@@]2(C)Oc3c(C)c(O)c4c(c3C2=O)C(=O)C(N2CCOCC2)=C(NC(=O)/C(C)=C\C=C\[C@H](C)[C@H](O)[C@@H](C)[C@@H](O)[C@@H](C)[C@H](OC(=O)NCc2cc(C(C)=O)no2)[C@@H]1C)C4=O` [Example 48], for which the MIC was 0.25 to 62 µg/mL (≈ 0.276 to 68.5 µM) in assay [3], 0.063 to 31 µg/mL in [6] (setting [13]) and 0.002 to 1.95 µg/mL (≈ 0.00221 to 2.15 µM) in assay [7].

Turning to `CO[C@H]1/C=C/O[C@@]2(C)Oc3c(C)c(O)c4c(c3C2=O)C(=O)C(N2CCOCC2)=C(NC(=O)/C(C)=C\C=C\[C@H](C)[C@H](O)[C@@H](C)[C@@H](O)[C@@H](C)[C@H](OC(=O)NCc2ccc(N(C)C)cc2)[C@@H]1C)C4=O` [Example 36, 25-O-Desacetyl-(carbonyl-(4-aminomethyl-phenyl)-dimethyl-amine) 3-morpholino rifamycin S], the MIC in [3] lay in the range of 0.25 to 62 µg/mL (≈ 0.273 to 67.8 µM); in [6] (setting [13]), 0.063 to 31 µg/mL; in assay [7], 0.002 to 1.95 µg/mL (≈ 0.00219 to 2.13 µM).

As for `CO[C@H]1/C=C/O[C@@]2(C)Oc3c(C)c(O)c4c(c3C2=O)C(=O)C(N2CCOCC2)=C(NC(=O)/C(C)=C\C=C\[C@H](C)[C@H](O)[C@@H](C)[C@@H](O)[C@@H](C)[C@H](OC(=O)NCCc2ccc(Cl)cc2)[C@@H]1C)C4=O` [Example 38, 25-O-Desacetyl-(carbonyl-2-(4-Chloro-phenyl)-ethylamine) 3-morpholino rifamycin S], the figures for the MIC in [3], in assay [6] (setting [13]) and in assay [7] were 0.25 to 62 µg/mL (≈ 0.272 to 67.4 µM), 0.063 to 31 µg/mL and 0.002 to 1.95 µg/mL (≈ 0.00217 to 2.12 µM), respectively.
